Measured values from patent publication US6355799B1, “Substituted benzene compounds, process for their preparation, and herbicidal and defoliant compositions containing them” (ISK Americas Incorporated, priority 1997, dated 2002).

What was measured:
Format in all cases: in vivo
[1] = tested on: barnyardgrass (Echinochloa crus-galli, ECHCG); experiment: Post-emerge test, greenhouse herbicide activity screening; conditions: phytotoxicity rating 0-100 (0 no damage, 100 complete death), 14 days after application
Outline: (§1)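 Visual ratings on a 0-100 scale (0 no damage, 100 all plants dead) were taken at 14 days after treatment. Rates of 15-1000 g ai/ha in acetone, 187 l/ha, were sprayed onto soil one day after planting (pre-emerge) or onto 2-3 leaf plants with 0.25% v/v surfactant (post-emerge).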

[2] = tested on: ivyleaf morningglory (Ipomoea hederacea, IPOHE); experiment: as above; conditions: phytotoxicity rating 0-100 (0 no damage, 100 complete death), 14 days after application
Outline: as §1

[3] = tested on: johnsongrass (Sorghum halepense, SORHA); experiment: as above; conditions: phytotoxicity rating 0-100 (0 no damage, 100 complete death), 14 days after application
Outline: as §1

[4] = tested on: green foxtail (Setaria viridis, SETVI); experiment: as above; conditions: phytotoxicity rating 0-100 (0 no damage, 100 complete death), 14 days after application
Outline: as §1

[5] = tested on: large crabgrass (Digitaria sanguinalis, DIGSA); experiment: as above; conditions: phytotoxicity rating 0-100 (0 no damage, 100 complete death), 14 days after application
Outline: as §1

[6] = tested on: lambsquarters (Chenopodium album, CHEAL); experiment: as above; conditions: phytotoxicity rating 0-100 (0 no damage, 100 complete death), 14 days after application
Outline: as §1

[7] = tested on: velvetleaf (Abutilon theophrasti, ABUTH); experiment: as above; conditions: phytotoxicity rating 0-100 (0 no damage, 100 complete death), 14 days after application
Outline: as §1

[8] = tested on: redroot pigweed (Amaranthus retroflexus, AMARE); experiment: as above; conditions: phytotoxicity rating 0-100 (0 no damage, 100 complete death), 14 days after application
Outline: as §1

[9] = tested on: sicklepod (Cassia obtusifolia, CASOB); experiment: as above; conditions: phytotoxicity rating 0-100 (0 no damage, 100 complete death), 14 days after application
Outline: as §1

[10] = tested on: common ragweed (Ambrosia artemisizfolia L., AMBEL); experiment: as above; conditions: phytotoxicity rating 0-100 (0 no damage, 100 complete death), 14 days after application
Outline: as §1

[11] = tested on: upland rice (Oryza sp., var. Tebonnet, RICE); experiment: Post-emerge test, crop safety; conditions: phytotoxicity rating 0-100 (0 no damage, 100 complete death), 14 days after application
Outline: (§2)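 Plants grown in 10 cm pots of sandy loam mix received acetone-dissolved compounds through a moving flat-fan nozzle. Doses ranged from 15 to 1000 g ai/ha. Pre-emerge pots were seeded one day earlier, post-emerge pots 8–21 days earlier. Fourteen days on, each pot was graded 0–100 for damage.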

[12] = tested on: field corn (Zea mays L., var. Dekalb 535, CORN); experiment: Post-emerge test, crop safety; conditions: phytotoxicity rating 0-100 (0 no damage, 100 complete death), 14 days after application
Outline: as §2

[13] = tested on: redroot pigweed (Amaranthus retroflexus, AMARE); experiment: Pre-emerge test, greenhouse herbicide activity screening; conditions: pre-emerge, rated 14 days after application, 0 = no damage, 100 = complete death
Outline: as §2

[14] = tested on: upland rice (Oryza sp., var. Tebonnet, RICE); experiment: Pre-emerge test, crop safety; conditions: pre-emerge, rated 14 days after application, 0 = no damage, 100 = complete death
Outline: (§3)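 Applied at 15–1000 g ai/ha from acetone in 187 l/ha spray volume. Post-emergence applications included 0.25% v/v non-ionic surfactant and reached plants sown 8–21 days before. Pre-emergence applications were incorporated by surface watering. Efficacy or crop damage was rated on a 0–100 scale after 14 days.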

[15] = tested on: field corn (Zea mays L., var. Dekalb 535, CORN); experiment: Pre-emerge test, crop safety; conditions: pre-emerge, rated 14 days after application, 0 = no damage, 100 = complete death
Outline: as §3

[16] = tested on: barnyardgrass (Echinochloa crus-galli, ECHCG); experiment: Pre-emerge test, greenhouse herbicide activity screening; conditions: pre-emerge, rated 14 days after application, 0 = no damage, 100 = complete death
Outline: (§4)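 Rating: 0–100 visual injury, 14 DAA. Application: acetone, 187 l/ha, 15–1000 g ai/ha, flat-fan track sprayer with nozzle 40–45 cm above soil or canopy. Post-emerge runs used 0.25% v/v surfactant on 2–3 leaf plants.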

[17] = tested on: ivyleaf morningglory (Ipomoea hederacea, IPOHE); experiment: as above; conditions: pre-emerge, rated 14 days after application, 0 = no damage, 100 = complete death
Outline: as §4

[18] = tested on: johnsongrass (Sorghum halepense, SORHA); experiment: as above; conditions: pre-emerge, rated 14 days after application, 0 = no damage, 100 = complete death
Outline: as §4

[19] = tested on: green foxtail (Setaria viridis, SETVI); experiment: as above; conditions: pre-emerge, rated 14 days after application, 0 = no damage, 100 = complete death
Outline: as §4

[20] = tested on: large crabgrass (Digitaria sanguinalis, DIGSA); experiment: as above; conditions: pre-emerge, rated 14 days after application, 0 = no damage, 100 = complete death
Outline: as §4

[21] = tested on: lambsquarters (Chenopodium album, CHEAL); experiment: as above; conditions: pre-emerge, rated 14 days after application, 0 = no damage, 100 = complete death
Outline: as §4

[22] = tested on: velvetleaf (Abutilon theophrasti, ABUTH); experiment: as above; conditions: pre-emerge, rated 14 days after application, 0 = no damage, 100 = complete death
Outline: as §4

[23] = tested on: sicklepod (Cassia obtusifolia, CASOB); experiment: as above; conditions: pre-emerge, rated 14 days after application, 0 = no damage, 100 = complete death
Outline: as §4

SMILES: CCn1c(C(F)(F)F)cc(=O)n(-c2c(F)cc(Cl)c(OC)c2N)c1=O [Compound 1-15]
- Post-emerge Herbicidal Activity ECHCG ([1]; 63 g ai/ha): 0
- Post-emerge Herbicidal Activity ECHCG ([1]; 250 g ai/ha): 0
- Post-emerge Herbicidal Activity IPOHE ([2]; 63 g ai/ha): 0
- Post-emerge Herbicidal Activity IPOHE ([2]; 250 g ai/ha): 40
- Post-emerge Herbicidal Activity SORHA ([3]; 63 g ai/ha): 0
- Post-emerge Herbicidal Activity SORHA ([3]; 250 g ai/ha): 0
- Post-emerge Herbicidal Activity SETVI ([4]; 63 g ai/ha): 0
- Post-emerge Herbicidal Activity SETVI ([4]; 250 g ai/ha): 0
- Post-emerge Herbicidal Activity DIGSA ([5]; 63 g ai/ha): 0
- Post-emerge Herbicidal Activity DIGSA ([5]; 250 g ai/ha): 0
- Post-emerge Herbicidal Activity CHEAL ([6]; 63 g ai/ha): 0
- Post-emerge Herbicidal Activity CHEAL ([6]; 250 g ai/ha): 20
- Post-emerge Herbicidal Activity ABUTH ([7]; 63 g ai/ha): 30
- Post-emerge Herbicidal Activity ABUTH ([7]; 250 g ai/ha): 50
- Post-emerge Herbicidal Activity AMARE ([8]; 63 g ai/ha): 0
- Post-emerge Herbicidal Activity AMARE ([8]; 250 g ai/ha): 30
- Post-emerge Herbicidal Activity CASOB ([9]; 63 g ai/ha): 0
- Post-emerge Herbicidal Activity CASOB ([9]; 250 g ai/ha): 0
- Post-emerge Herbicidal Activity AMBEL ([10]; 63 g ai/ha): 0
- Post-emerge Herbicidal Activity AMBEL ([10]; 250 g ai/ha): 0
- Post-emerge Herbicidal Activity RICE (crop damage) ([11]; 63 g ai/ha): 0
- Post-emerge Herbicidal Activity RICE (crop damage) ([11]; 250 g ai/ha): 0
- Post-emerge Herbicidal Activity CORN (crop damage) ([12]; 63 g ai/ha): 0
- Post-emerge Herbicidal Activity CORN (crop damage) ([12]; 250 g ai/ha): 0
- Pre-emerge Herbicidal Activity AMARE (phytotoxicity rating, scale 0-100) ([13]; 63 g ai/ha): 0
- Pre-emerge Herbicidal Activity AMARE (phytotoxicity rating, scale 0-100) ([13]; 250 g ai/ha): 20
- Pre-emerge crop damage RICE (phytotoxicity rating, scale 0-100) ([14]; 63 g ai/ha): 10
- Pre-emerge crop damage RICE (phytotoxicity rating, scale 0-100) ([14]; 250 g ai/ha): 30
- Pre-emerge crop damage CORN (phytotoxicity rating, scale 0-100) ([15]; 63 g ai/ha): 0
- Pre-emerge crop damage CORN (phytotoxicity rating, scale 0-100) ([15]; 250 g ai/ha): 0
- Pre-emerge Herbicidal Activity ECHCG (phytotoxicity rating, scale 0-100) ([16]; 63 g ai/ha): 0
- Pre-emerge Herbicidal Activity ECHCG (phytotoxicity rating, scale 0-100) ([16]; 250 g ai/ha): 0
- Pre-emerge Herbicidal Activity IPOHE (phytotoxicity rating, scale 0-100) ([17]; 63 g ai/ha): 0
- Pre-emerge Herbicidal Activity IPOHE (phytotoxicity rating, scale 0-100) ([17]; 250 g ai/ha): 0
- Pre-emerge Herbicidal Activity SORHA (phytotoxicity rating, scale 0-100) ([18]; 63 g ai/ha): 0
- Pre-emerge Herbicidal Activity SORHA (phytotoxicity rating, scale 0-100) ([18]; 250 g ai/ha): 20
- Pre-emerge Herbicidal Activity SETVI (phytotoxicity rating, scale 0-100) ([19]; 63 g ai/ha): 70
- Pre-emerge Herbicidal Activity SETVI (phytotoxicity rating, scale 0-100) ([19]; 250 g ai/ha): 80
- Pre-emerge Herbicidal Activity DIGSA (phytotoxicity rating, scale 0-100) ([20]; 63 g ai/ha): 0
- Pre-emerge Herbicidal Activity DIGSA (phytotoxicity rating, scale 0-100) ([20]; 250 g ai/ha): 90
- Pre-emerge Herbicidal Activity CHEAL (phytotoxicity rating, scale 0-100) ([21]; 63 g ai/ha): 40
- Pre-emerge Herbicidal Activity CHEAL (phytotoxicity rating, scale 0-100) ([21]; 250 g ai/ha): 50
- Pre-emerge Herbicidal Activity ABUTH (phytotoxicity rating, scale 0-100) ([22]; 63 g ai/ha): 20
- Pre-emerge Herbicidal Activity ABUTH (phytotoxicity rating, scale 0-100) ([22]; 250 g ai/ha): 90
- Pre-emerge Herbicidal Activity CASOB (phytotoxicity rating, scale 0-100) ([23]; 63 g ai/ha): 0
- Pre-emerge Herbicidal Activity CASOB (phytotoxicity rating, scale 0-100) ([23]; 250 g ai/ha): 0
